Reference: patent publication US8492396B2, “Therapeutic uses of adrenergic α-1 receptor antagonists” (SANOFI, priority 2007, dated 2013)

What was measured:
urinary bladder = test: CYP-evoked plasma protein extravasation (Evans blue) in urinary bladder; format: in vivo; details: CYP 150 mg/kg i.p., 90 min after CYP; ruthenium red 4 mg/kg s.c.; camphor 50 μmol/kg i.p.
Description: Male Sprague-Dawley rats and Swiss mice were administered with CYP (150 mg/kg, i.p.) or its vehicle (0.9% NaCl) for cystitis induction. 48 hours later urinary bladders were removed and placed in an organ bath for motor response measurement. Writhing behaviors and plasma protein extravasation were investigated 90 min after the CYP administration. Intraperitoneal administration of cyclophosphamide (150 mg/kg, 48 h before) is known to decrease bladder capacity and increased micturition frequency (Maggi et al., 1992, J Auton Nerv Syst, 38, 201-8). These effects of cyclophosphamide were abolished in rats pretreated with capsaicin as adults (Maggi et al., 1992, J Auton Nerv Syst, 38, 201-8). Thus, the inflammatory responses to cyclophosphamide are mediated by neurogenic inflammatory mechanisms. Evans blue dye was used to measure plasma extravasation. The proinflammatory stimulus was given immediately after the injection of the dye (30 mg/kg i.v. over 5 s) in the jugular vein. The chest was opened 10 min or at different time intervals as required after the injection of Evans blue and the animal perfused for 3 min with a phosphate buffer. The urinary bladder, urethra and prostate were removed, blotted and weighed. […] The amount of Evans blue extravasated from the […] was measured using a spectrophotometer and expressed as ng/mg of wet weight.

[1] = tested on: strips of rat urinary bladder; test: eNANC contractile response to electrical field stimulation in isolated urinary bladder strips from CYP-treated rats; format: in vivo; details: intravenous pretreatment 30 μg/kg; bladders taken 48 h after CYP 150 mg/kg i.p.
Description: Male Sprague-Dawley rats and Swiss mice were administered with CYP (150 mg/kg, i.p.) or its vehicle (0.9% NaCl) for cystitis induction. 48 hours later urinary bladders were removed and placed in an organ bath for motor response measurement. Writhing behaviors and plasma protein extravasation were investigated 90 min after the CYP administration. Strips of rat urinary bladder were taken from terminally anesthetized animals and mounted in organ baths and after an equilibration period the eNANC contractile response to electrical field stimulation (EFS, 5 Hz, 1 ms width, 10 V) in the absence and presence of atropine (1 μM) is studied (Rigoni et al., 2003, Br J Pharmacol, 138, 977-85) The contraction produced by EFS in these experimental conditions is entirely mediated by SP and NKA released from terminals of primary sensory neurons. The eNANC response to EFS was reproducible at 60 min intervals. The effect of alfuzosin or its vehicle on the eNANC response to EFS was studied in parallel experiments. At the beginning or end of each experiment tissues were challenged with carbachol (1 μM). The effect of alfuzosin was studied also in bladder strips obtained from rats treated with cyclophosphamide. […]

[2] = tested on: urinary bladder taken from CYP-treated rats; test: contractile response to capsaicin in urinary bladder taken from CYP-treated rats; format: in vivo, rat; details: pretreatment with alfuzosin; bladders from CYP-treated rats
Description: Male Sprague-Dawley rats and Swiss mice were administered with CYP (150 mg/kg, i.p.) or its vehicle (0.9% NaCl) for cystitis induction. 48 hours later urinary bladders were removed and placed in an organ bath for motor response measurement. Writhing behaviors and plasma protein extravasation were investigated 90 min after the CYP administration. […] The eNANC response to EFS was reproducible at 60 min intervals. The effect of alfuzosin or its vehicle on the eNANC response to EFS was studied in parallel experiments. At the beginning or end of each experiment tissues were challenged with carbachol (1 μM). The effect of alfuzosin was studied also in bladder strips obtained from rats treated with cyclophosphamide.

mice = test: writhings evoked by intraperitoneal acetic acid in CYP-treated mice; format: in vivo; details: pre-treatment 30 μg/kg i.v., CYP 150 mg/kg i.p.
Description: Male Sprague-Dawley rats and Swiss mice were administered with CYP (150 mg/kg, i.p.) or its vehicle (0.9% NaCl) for cystitis induction. 48 hours later urinary bladders were removed and placed in an organ bath for motor response measurement. Writhing behaviors and plasma protein extravasation were investigated 90 min after the CYP administration.

| Structure (SMILES) | CYP-evoked plasma protein extravasation in urinary bladder (urinary bladder) | reversal of CYP-induced reduction of the contractile response to EFS (eNANC, in the presence of atropine) [1] | reversal of CYP-induced reduction of the contractile response to capsaicin [2] | reduction of the CYP-induced increase in number of writhings evoked by acetic acid (mice) |
| --- | --- | --- | --- | --- |
| CC12CCC(CC1=O)C2(C)C (centres unmarked) [camphor] | completely prevented | – | – | – |
| COc1cc2nc(N(C)CCCNC(=O)C3CCCO3)nc(N)c2cc1OC (centres unmarked) [alfuzosin] | – | > 50 % of reversal | ~50 % of reversal | 48 % of reduction |
| N.N.N.N.N.N.N.N.N.N.N.N.N.N.[Cl-].[Cl-].[Cl-].[Cl-].[Cl-].[Cl-].[O-2].[O-2].[Ru+3].[Ru+3].[Ru+4] [ruthenium red] | completely prevented | – | – | – |
